Legend:
CAMK4 = CAMK4 (Homo sapiens, UniProt Q16566); experiment: biochemical; conditions: read-out: % enzyme activity, 1 μM; Run 1, Run 2
RIPK2 = RIPK2 (Homo sapiens, UniProt O43353); experiment: biochemical; conditions: read-out: % enzyme activity, 1 μM; Run 1, Run 2
YES/YES1 = YES/YES1 (Homo sapiens, UniProt P07947); conditions: 1 μM; Run 1, Run 2
SYK = SYK (Homo sapiens, UniProt P43405); conditions: 1 μM; Run 1, Run 2
ERK5/MAPK7 = ERK5/MAPK7 (Homo sapiens, UniProt Q13164); experiment: biochemical; conditions: read-out: % enzyme activity, 1 μM; Run 1, Run 2
ERK5/MAPK7, sequence (Q13164 whole entry): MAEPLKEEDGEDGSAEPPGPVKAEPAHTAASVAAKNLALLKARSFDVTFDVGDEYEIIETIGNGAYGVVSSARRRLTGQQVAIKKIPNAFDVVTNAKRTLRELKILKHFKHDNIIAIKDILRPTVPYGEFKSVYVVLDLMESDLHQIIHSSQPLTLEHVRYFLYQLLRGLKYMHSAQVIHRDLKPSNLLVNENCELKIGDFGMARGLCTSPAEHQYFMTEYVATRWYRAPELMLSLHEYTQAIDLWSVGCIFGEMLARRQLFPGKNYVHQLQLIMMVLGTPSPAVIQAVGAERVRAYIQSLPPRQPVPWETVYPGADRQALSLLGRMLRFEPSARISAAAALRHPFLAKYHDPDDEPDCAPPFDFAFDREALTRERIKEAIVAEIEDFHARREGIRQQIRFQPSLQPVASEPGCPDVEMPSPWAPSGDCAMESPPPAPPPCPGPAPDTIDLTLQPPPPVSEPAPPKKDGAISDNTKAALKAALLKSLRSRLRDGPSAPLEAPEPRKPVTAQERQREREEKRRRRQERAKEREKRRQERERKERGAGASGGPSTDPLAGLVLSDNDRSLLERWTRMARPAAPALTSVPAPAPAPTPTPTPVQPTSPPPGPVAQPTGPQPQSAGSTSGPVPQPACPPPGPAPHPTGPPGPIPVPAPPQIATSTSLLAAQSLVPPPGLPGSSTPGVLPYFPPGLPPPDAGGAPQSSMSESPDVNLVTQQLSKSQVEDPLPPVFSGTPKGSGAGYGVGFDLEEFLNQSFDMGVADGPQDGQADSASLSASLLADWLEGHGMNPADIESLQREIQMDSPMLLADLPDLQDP

CDK2/cyclin A = CDK2/cyclin A (Homo sapiens, UniProt P24941); conditions: 1 μM; Run 1, Run 2
PDK1/PDPK1 [1] = target: T1, PDK1/PDPK1 (Homo sapiens, UniProt O15530); conditions: 1 μM; Run 1, Run 2
T1 sequence (O15530 1-556): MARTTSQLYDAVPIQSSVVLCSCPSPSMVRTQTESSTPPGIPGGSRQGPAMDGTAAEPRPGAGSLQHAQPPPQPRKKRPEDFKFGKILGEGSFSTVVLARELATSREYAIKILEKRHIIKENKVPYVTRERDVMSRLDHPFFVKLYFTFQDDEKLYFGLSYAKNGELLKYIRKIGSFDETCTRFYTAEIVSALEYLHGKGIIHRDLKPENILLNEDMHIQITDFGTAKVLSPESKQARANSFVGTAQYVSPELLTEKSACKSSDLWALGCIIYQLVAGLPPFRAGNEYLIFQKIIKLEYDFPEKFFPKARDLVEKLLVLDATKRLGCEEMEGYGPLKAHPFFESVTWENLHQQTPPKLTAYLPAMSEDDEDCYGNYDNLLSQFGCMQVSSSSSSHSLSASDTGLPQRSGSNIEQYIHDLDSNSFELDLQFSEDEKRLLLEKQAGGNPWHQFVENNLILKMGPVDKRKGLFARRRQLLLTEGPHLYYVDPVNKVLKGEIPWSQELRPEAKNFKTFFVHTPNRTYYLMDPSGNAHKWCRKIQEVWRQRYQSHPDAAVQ

TAOK3/JIK = target: T2, TAOK3/JIK (Homo sapiens, UniProt Q9H2K8); experiment: biochemical; conditions: read-out: % enzyme activity, 1 μM; Run 1, Run 2
T2 sequence (Q9H2K8 1-898): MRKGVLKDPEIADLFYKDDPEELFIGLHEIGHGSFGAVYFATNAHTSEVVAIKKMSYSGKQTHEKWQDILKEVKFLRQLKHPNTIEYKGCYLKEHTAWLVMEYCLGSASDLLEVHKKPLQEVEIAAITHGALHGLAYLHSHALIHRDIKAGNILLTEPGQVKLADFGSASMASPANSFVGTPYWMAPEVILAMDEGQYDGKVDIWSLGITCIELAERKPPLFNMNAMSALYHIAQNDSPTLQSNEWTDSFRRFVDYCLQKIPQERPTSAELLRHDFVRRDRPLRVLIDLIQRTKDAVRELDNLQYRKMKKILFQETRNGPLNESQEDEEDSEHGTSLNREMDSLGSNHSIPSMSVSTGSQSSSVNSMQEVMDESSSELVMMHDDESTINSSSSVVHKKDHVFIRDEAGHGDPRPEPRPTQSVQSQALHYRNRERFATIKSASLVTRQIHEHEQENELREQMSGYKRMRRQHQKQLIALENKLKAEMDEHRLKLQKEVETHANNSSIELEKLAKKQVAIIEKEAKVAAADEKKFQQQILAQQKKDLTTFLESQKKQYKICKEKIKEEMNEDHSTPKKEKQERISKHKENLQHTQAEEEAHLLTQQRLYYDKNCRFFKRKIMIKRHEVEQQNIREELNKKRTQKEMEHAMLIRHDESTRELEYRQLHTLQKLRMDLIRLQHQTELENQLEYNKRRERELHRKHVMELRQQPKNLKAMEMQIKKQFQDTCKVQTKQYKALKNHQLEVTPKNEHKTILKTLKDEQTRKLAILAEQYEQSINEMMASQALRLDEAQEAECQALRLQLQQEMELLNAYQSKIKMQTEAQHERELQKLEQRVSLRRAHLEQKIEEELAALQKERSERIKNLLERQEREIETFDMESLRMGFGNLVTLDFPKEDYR

PEAK1 = PEAK1 (Homo sapiens, UniProt Q9H792); conditions: 1 μM; Run 1, Run 2
ERK1 [2] = target: T3, ERK1 (Homo sapiens, UniProt P27361); conditions: 1 μM; Run 1, Run 2
T3 sequence (P27361 whole entry): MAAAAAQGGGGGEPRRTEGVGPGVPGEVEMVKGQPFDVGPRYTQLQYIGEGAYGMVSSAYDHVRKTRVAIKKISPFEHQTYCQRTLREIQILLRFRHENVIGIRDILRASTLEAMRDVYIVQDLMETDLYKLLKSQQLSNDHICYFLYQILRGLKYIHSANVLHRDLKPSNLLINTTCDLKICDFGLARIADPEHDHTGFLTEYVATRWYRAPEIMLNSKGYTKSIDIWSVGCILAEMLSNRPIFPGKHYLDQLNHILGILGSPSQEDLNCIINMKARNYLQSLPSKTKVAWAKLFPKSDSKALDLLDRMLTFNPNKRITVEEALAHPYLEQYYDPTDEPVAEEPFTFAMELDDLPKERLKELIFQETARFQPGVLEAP

TIE2/TEK = TIE2/TEK (Homo sapiens, UniProt Q02763); conditions: 1 μM; Run 1, Run 2
ERK1 [3] = target: T3, ERK1; experiment: biochemical; conditions: read-out: % enzyme activity, 1 μM; Run 1, Run 2
CDK4/cyclin D1 = CDK4/cyclin D1 (Homo sapiens, UniProt P11802); conditions: 1 μM; Run 1, Run 2
PKCb2 = PKCb2 (Homo sapiens, UniProt P05771); conditions: 1 μM; Run 1, Run 2
PKCb2, sequence (P05771 1-673 isoform P05771-2): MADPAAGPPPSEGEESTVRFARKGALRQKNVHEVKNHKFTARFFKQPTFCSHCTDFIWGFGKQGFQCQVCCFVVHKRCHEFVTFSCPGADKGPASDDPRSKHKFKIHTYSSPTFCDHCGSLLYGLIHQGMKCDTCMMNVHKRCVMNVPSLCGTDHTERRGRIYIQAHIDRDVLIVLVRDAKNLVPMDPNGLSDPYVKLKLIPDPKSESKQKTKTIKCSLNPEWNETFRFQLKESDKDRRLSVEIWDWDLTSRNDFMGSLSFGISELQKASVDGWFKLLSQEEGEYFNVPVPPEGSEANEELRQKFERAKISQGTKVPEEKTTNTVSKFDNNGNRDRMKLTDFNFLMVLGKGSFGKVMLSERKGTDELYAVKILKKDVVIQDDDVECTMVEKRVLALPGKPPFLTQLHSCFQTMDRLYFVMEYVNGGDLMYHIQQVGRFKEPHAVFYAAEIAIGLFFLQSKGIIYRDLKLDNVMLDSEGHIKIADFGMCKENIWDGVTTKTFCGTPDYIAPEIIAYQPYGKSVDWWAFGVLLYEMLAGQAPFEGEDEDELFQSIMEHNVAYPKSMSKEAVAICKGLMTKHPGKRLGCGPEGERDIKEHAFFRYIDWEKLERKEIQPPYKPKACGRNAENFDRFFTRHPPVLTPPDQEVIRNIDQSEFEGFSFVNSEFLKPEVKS

CK2a2 = CK2a2 (Homo sapiens, UniProt P19784); experiment: biochemical; conditions: read-out: % enzyme activity, 1 μM; Run 1, Run 2
CK2a2, sequence (P19784 whole entry): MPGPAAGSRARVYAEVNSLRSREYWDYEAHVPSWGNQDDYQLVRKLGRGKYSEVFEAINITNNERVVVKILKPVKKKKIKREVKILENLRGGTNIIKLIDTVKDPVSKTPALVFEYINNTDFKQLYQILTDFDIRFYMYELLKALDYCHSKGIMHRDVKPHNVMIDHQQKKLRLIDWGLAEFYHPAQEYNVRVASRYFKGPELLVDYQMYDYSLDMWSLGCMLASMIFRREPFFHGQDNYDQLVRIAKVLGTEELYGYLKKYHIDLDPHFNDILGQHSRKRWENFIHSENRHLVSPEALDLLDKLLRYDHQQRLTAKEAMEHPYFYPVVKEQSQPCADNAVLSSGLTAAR

CDK5/p35 = CDK5/p35 (Homo sapiens, UniProt Q00535); conditions: 1 μM; Run 1, Run 2
GRK5 = GRK5 (Homo sapiens, UniProt P34947); conditions: 1 μM; Run 1, Run 2
MAPKAPK3 = MAPKAPK3 (Homo sapiens, UniProt Q16644); experiment: biochemical; conditions: read-out: % enzyme activity, 1 μM; Run 1, Run 2
MAPKAPK3, sequence (Q16644 whole entry): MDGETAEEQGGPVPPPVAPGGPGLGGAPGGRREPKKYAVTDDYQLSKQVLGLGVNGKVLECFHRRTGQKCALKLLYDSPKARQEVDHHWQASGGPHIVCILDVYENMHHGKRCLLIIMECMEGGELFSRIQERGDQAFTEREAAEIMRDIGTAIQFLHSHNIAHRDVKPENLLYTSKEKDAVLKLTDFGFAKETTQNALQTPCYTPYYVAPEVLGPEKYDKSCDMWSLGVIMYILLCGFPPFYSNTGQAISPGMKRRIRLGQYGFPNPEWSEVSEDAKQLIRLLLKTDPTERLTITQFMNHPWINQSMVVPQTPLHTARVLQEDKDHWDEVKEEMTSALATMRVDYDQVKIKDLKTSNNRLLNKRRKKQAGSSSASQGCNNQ

PDK1/PDPK1 [4] = target: T1, PDK1/PDPK1; experiment: biochemical; conditions: read-out: % enzyme activity, 1 μM; Run 1, Run 2
BRAF = target: T4, BRAF (Homo sapiens, UniProt P15056); experiment: 375-member kinase panel; assay type: biochemical; conditions: Run 1, Run 2; for % enzyme activity: 1 μM; for remaining activity at 1 µM: read-out: % enzyme activity, 1 μM
T4 construct: purchased Reaction Biology Corporation
T4 sequence (P15056 whole entry): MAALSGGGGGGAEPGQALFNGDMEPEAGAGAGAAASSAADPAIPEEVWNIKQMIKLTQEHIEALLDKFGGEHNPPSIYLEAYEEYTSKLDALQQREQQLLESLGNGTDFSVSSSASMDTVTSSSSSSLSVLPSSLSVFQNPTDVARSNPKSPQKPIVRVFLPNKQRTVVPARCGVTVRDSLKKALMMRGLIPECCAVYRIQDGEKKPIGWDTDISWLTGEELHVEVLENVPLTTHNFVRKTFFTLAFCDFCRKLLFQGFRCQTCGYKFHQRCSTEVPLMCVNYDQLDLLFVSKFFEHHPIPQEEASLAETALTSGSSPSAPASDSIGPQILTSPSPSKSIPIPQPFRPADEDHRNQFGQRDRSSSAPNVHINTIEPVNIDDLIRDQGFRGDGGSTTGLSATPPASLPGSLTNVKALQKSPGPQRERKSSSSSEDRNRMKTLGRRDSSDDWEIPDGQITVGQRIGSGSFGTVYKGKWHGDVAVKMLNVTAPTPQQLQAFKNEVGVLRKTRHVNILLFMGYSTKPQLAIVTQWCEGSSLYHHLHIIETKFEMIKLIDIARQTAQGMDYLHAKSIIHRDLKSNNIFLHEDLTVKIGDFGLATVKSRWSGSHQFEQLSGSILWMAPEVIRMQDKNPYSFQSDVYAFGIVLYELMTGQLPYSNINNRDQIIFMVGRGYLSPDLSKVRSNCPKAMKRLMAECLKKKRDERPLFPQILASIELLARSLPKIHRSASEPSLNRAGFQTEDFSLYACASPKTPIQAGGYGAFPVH

MYO3A [5] = target: T5, MYO3A (Homo sapiens, UniProt Q8NEV4); experiment: biochemical; conditions: read-out: % enzyme activity, 1 μM; Run 1, Run 2
T5 sequence (Q8NEV4 whole entry): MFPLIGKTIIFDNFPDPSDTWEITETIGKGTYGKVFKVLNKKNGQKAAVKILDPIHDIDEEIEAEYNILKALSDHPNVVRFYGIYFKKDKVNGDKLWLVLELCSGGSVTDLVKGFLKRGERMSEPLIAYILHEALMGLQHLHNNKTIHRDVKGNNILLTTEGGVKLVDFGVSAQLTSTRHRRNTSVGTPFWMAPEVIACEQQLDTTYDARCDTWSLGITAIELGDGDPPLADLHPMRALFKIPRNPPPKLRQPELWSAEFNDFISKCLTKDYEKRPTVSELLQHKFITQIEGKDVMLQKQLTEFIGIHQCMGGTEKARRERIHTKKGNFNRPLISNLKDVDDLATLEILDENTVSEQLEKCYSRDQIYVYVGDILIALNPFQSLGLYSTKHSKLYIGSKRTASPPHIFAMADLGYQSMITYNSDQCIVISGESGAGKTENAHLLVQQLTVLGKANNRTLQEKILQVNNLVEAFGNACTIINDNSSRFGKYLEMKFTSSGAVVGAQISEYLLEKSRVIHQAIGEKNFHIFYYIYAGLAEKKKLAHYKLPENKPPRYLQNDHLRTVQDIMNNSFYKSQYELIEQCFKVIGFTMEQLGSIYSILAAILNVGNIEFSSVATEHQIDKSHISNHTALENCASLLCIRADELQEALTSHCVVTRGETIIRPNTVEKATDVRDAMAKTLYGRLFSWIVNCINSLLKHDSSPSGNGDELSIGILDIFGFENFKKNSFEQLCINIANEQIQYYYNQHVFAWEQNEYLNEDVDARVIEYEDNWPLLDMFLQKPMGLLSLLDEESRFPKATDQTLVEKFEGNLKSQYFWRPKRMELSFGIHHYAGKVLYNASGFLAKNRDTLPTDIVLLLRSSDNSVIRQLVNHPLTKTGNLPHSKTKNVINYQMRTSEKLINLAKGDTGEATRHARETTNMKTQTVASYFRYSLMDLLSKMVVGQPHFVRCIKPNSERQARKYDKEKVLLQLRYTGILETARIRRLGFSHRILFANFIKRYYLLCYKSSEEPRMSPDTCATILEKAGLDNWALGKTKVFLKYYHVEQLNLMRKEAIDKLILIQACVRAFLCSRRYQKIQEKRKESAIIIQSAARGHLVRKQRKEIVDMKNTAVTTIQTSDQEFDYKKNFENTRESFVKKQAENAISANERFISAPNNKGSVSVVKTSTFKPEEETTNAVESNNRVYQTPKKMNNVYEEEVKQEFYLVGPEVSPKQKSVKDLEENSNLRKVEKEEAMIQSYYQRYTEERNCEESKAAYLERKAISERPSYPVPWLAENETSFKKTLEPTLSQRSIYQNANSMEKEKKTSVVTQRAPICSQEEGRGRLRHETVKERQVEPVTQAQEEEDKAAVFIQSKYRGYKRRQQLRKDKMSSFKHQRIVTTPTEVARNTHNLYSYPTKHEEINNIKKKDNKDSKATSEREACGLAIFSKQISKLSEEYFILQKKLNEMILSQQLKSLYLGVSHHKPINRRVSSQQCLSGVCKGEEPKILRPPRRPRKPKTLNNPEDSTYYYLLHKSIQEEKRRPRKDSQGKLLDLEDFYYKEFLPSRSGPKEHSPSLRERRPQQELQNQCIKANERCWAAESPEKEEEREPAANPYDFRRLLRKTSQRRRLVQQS

MYO3A [6] = target: T5, MYO3A; conditions: 1 μM; Run 1, Run 2

Structure (SMILES)	remaining activity at 1 µM (CAMK4) [%]	remaining activity at 1 µM (RIPK2) [%]	% enzyme activity (YES/YES1) [%]	% enzyme activity (SYK) [%]	remaining activity at 1 µM (ERK5/MAPK7) [%]	% enzyme activity (CDK2/cyclin A) [%]	% enzyme activity (PDK1/PDPK1 [1]) [%]	remaining activity at 1 µM (TAOK3/JIK) [%]	% enzyme activity (PEAK1) [%]	% enzyme activity (ERK1 [2]) [%]	% enzyme activity (TIE2/TEK) [%]	remaining activity at 1 µM (ERK1 [3]) [%]	% enzyme activity (CDK4/cyclin D1) [%]	% enzyme activity (PKCb2) [%]	remaining activity at 1 µM (CK2a2) [%]	% enzyme activity (CDK5/p35) [%]	% enzyme activity (GRK5) [%]	remaining activity at 1 µM (MAPKAPK3) [%]	remaining activity at 1 µM (PDK1/PDPK1 [4]) [%]	% enzyme activity (BRAF) [%]	other results
COc1cc(-c2cncc(-c3ccc(N4CCN(C)CC4)cc3)c2C)cc(F)c1C(N)=O [Compound 26a, 2-Fluoro-6-methoxy-4-(4-methyl-5-(4-(4-methylpiperazin-1-yl)phenyl)pyridin-3-yl)benzamide]	100	71.1	104.56	100.12	96.5	97.95	91.49	69.7	97.59	94.73	92.85	97.3	98.46	106.51	95.3	95.26	99.06	99.5	94.3	28.77	remaining activity at 1 µM (BRAF): 28.8%; remaining activity at 1 µM (MYO3A [5]): 84%; % enzyme activity (MYO3A [6]): 81.86%
COc1cc(-c2cncc(-c3ccc(N4C[C@@H](C)N(C)[C@@H](C)C4)cc3)c2C)cc(F)c1C(N)=O [Compound 26c, 2-Fluoro-6-methoxy-4-(4-methyl-5-(4-((3R,5S)-3,4,5-trimethylpiperazin-1-yl)phenyl)pyridin-3-yl)benzamide]	103	89.7	108.87	101.24	101	98.65	94.36	84.5	95.56	94.56	92.15	95.3	100.29	97.56	101	96.90	91.62	97.2	95.9	40.52	remaining activity at 1 µM (BRAF): 41.1%; remaining activity at 1 µM (MYO3A [5]): 94.7%; % enzyme activity (MYO3A [6]): 94.68%

— paper PMC8213057, “Targeting ALK2: An Open Science Approach to Developing Therapeutics for the Treatment of Diffuse Intrinsic Pontine Glioma” (Journal of Medicinal Chemistry, 2020)
